Like-named read-outs stand apart in the source and are kept apart here.
How the values were obtained:
[1] = system: H. influenza ARD476 strain; assay: Measurement of MIC for H. influenza ARD476; format: cell-based; details: Haemophilus influenzae, ARD476STRAIN, read-out: MIC H. influenzae ARD476
Procedure: (§1) Each of the above compounds was measured for minimum inhibitory concentration (MIC) for Haemophilus influenza.
(§2) Haemophilus influenza T-196 strain and H. influenza ARD476 strain each were statically cultured in a HI medium (Muller Hinton medium (product of Becton, Dickinson Co.) supplemented with 5% Fildes enrichment (product of Becton, Dickinson Co.)) at 37° C. overnight under aerobic conditions containing 5% carbon dioxide gas.
(§3) After completion of the culturing, the culture was suspended with the HI medium and diluted so that each Haemophilus influenza strain was 2×10^6 CFU/mL to 9×10^6 CFU/mL.
(§4) Each of the test samples (each of the above compounds, clarithromycin, and ampicillin) was prepared with the HI medium to have a concentration of 256 mg/L. From this concentration, the test sample was 2-fold diluted serially in 11 steps to 0.125 mg/L.
(§5) The above-diluted culture was added at 50 μL/well to 50 μL/well of the HI medium containing each of the test samples at the above concentrations, and was statically cultured for 18 hours at 37° C. under aerobic conditions containing 5% carbon dioxide gas.
(§6) After completion of the culturing, the presence or absence of proliferation of each bacterium was visually determined based on turbidity, and the MIC for each bacterial strain was obtained.

[2] = system: H. pylori JCM12095 strain; assay: Measurement of MIC for H. pylori JCM12095; format: cell-based; details: Helicobacter pylori, read-out: MIC H. pylori JCM 12095
Procedure: (§7) Each of the above compounds was measured for minimum inhibitory concentration (MIC) for Helicobacter pylori.
(§8) Helicobacter pylori JCM12093 strain and H. pylori JCM12095 strain each were statically cultured in a HP medium (brain heart infusion broth (product of Becton, Dickinson Co.) supplemented with 10% fetal bovine serum (product of Life Technologies Co.)) for 144 hours at 37° C. under microaerobic culture conditions (microaerobic conditions (N2:O2:CO2=85:5:10)).
(§9) After completion of the culturing, the culture was suspended with the HP medium and diluted so that Helicobacter pylori was 2×10^6 CFU/mL to 9×10^6 CFU/mL.
(§10) Each of the test samples (each of the above compounds, clarithromycin, and ampicillin) was prepared with the HP medium to have a concentration of 256 mg/L. From this concentration, the test sample was 2-fold diluted serially in 15 steps to 0.0078 mg/L.
(§11) The above-diluted culture was added at 50 μL/well to 50 μL/well of the HP medium containing each of the test samples at the above concentrations, and was statically cultured for 144 hours at 37° C. under microaerobic culture conditions (microaerobic conditions (N2:O2:CO2=85:5:10)). After completion of the culturing, the presence or absence of proliferation of each bacterium was visually determined based on turbidity, and the MIC for each bacterial strain was obtained.

[3] = system: Enterococcus faecalis JCM5803 strain; assay: Measurement of MIC for Enterococcus faecalis; format: cell-based; details: read-out: MIC Enterococcus faecalis JCM5803
Procedure: Each of the above compounds was measured for minimum inhibitory concentration (MIC) for Enterococcus faecalis.
Enterococcus faecalis JCM5803 strain was cultured under shaking in a heart infusion broth medium (product of Becton, Dickinson Co.) at 37° C. overnight.
After completion of the culturing, the culture was diluted with the heart infusion broth medium so that the bacteria were 2×10^4 CFU/mL to 9×10^4 CFU/mL.
Each of the test samples (each of the above compounds, clarithromycin, and ampicillin) was prepared with the heart infusion broth medium to have a concentration of 256 mg/L. From this concentration, the test sample was 2-fold diluted serially in 11 steps to 0.125 mg/L.
The above-diluted culture was added at 50 μL/well to 50 μL/well of the heart infusion broth medium containing each of the test samples at the above concentrations, and was statically cultured at 37° C. for 18 hours.
as §6

[4] = system: human stomach cancer cells MKN-74; assay: Cell proliferation test, monoculture test (GFP fluorescence); format: cell-based
Procedure: Human stomach cancer cells MKN-74 (Riken Cell Bank) were cultured at 37° C. and 5% CO2 in DMEM supplemented with 10% FBS (product of GIBCO Co.), 100 units/mL penicillin G (product of Invitrogen Co.), and 100 μg/mL streptomycin (product of Invitrogen Co.).
The above cancer cells were allowed to undergo gene transfer of Green fluorescence protein (GFP) expression vector, pEGFP-C1 (product of BD Biosciences Co.) using the Lipofectamine reagent (product of Invitrogen Co.), to thereby clone cells stably expressing GFP.
Only DMEM containing 1% dialyzed serum, 5 μg/mL insulin, 5 μg/mL transferrine (product of Wako Pure Chemical Industries Co.), and 1.4 μM hydrocortisone (product of Sigma Co.) was placed in a 96-well plate at 0.1 mL/well, and respective evaluation samples (the compounds expressed by Structural Formulas (1) to (13)) were added thereto at respective concentrations, followed by maintaining at 37° C. and 5% CO2 for 2 days.
Next, the above human stomach cancer cells MKN-74 were dispersed in DMEM at 5×10^5 cells/mL, and were placed in the above plate at 10 μL/well, followed by further coculturing at 37° C. and 5% CO2 for 3 days.
Measurement of cell proliferation rates in the above coculture test and monoculture test was performed in the following manner.
The medium was removed from the wells of the above plate, and a cytolysis liquid (10 mM Tris-HCl [pH 7.4], 150 mM NaCl, 0.9 mM CaCl2, and 1% Triton X-100) was added thereto at 0.1 mL/well to lyse the cells. The fluorescence intensity of GFP was measured at an excitation wavelength of 485 nm and a fluorescence wavelength of 538 nm, and the cell proliferation rates were calculated from the following formula. Cell proliferation rate (%)=(Fluorescence intensity in the presence of the evaluation sample/Fluorescence intensity in the absence of the evaluation sample)×100

[5] = system: Helicobacter pylori JCM12093 strain; assay: Measurement of MIC for Helicobacter pylori JCM12093; format: cell-based; details: for MIC: Helicobacter pylori, read-out: MIC Helicobacter pylori JCM 12093; for anti-Helicobacter pylori activity (in words): summary of Table 3, H. pylori JCM12093 and JCM12095 strains
Procedure: as §7, §8, §9, §10, §11

[6] = Acute toxicity test (maximum tolerated dose); details: female, ICR, mouse, in vivo, iv
Excerpt: ICR mice (female, 4 weeks old, product of Charles River Co.) were bred under the SPF conditions.
One half of the administration dose at which the mice were recognized to be dead or have serious toxicity for the observation period of 2 weeks was defined as the maximum tolerated dose (MTD) in the present experiment.

[7] = system: Haemophilus influenza T-196 strain; assay: Measurement of MIC for Haemophilus influenza T-196; format: cell-based; details: read-out: MIC Haemophilus influenzae T-196
Procedure: as §1, §2, §3, §4, §5, §6

[8] = HI medium, 18 hours, 37° C., 5% carbon dioxide
[9] = JCM12095, HP medium, 144 hours, 37° C., microaerobic
[10] = JCM5803, heart infusion broth medium, 37° C., 18 hours
[11] = monoculture test, MKN-74 alone, cell proliferation rate, average of duplicate, read-out: Mono IC50
[12] = JCM12093, HP medium, 144 hours, 37° C., microaerobic
[13] = intravenous administration, ICR mice, observed for 2 weeks, one half of the dose with death or serious toxicity, read-out: MTD

Row | SMILES | MIC [1, 8] [µg/mL] | MIC [2, 9] [µg/mL] | MIC [3, 10] [µg/mL] | IC50 [4, 11] [µg/mL] | MIC [5, 12] [µg/mL] | anti-Helicobacter pylori activity (in words) [5] | MTD at 2 weeks [6, 13] [mg/kg] | MIC [7, 8] [µg/mL] | MTD at 2 weeks ([6]; MTD) [mg/kg] | MIC ([2]; JCM12095, 144 h) [µg/mL] | IC50 ([4]; MKN-74, read-out: Mono IC50) [µg/mL] | MIC ([5]; JCM12093, 144 h) [µg/mL] | MIC ([1]; 18 h) [µg/mL] | MIC ([3]; JCM5803, 18 h) [µg/mL] | MIC ([7]; 18 h) [µg/mL]
1 | Cc1c(CCCC/C=C/C(C)C)[nH]c2ccccc2c1=O [Structural Formula (3)] | > 128 | 0.016 | > 128 | > 100 | 0.008 | exhibited anti-Helicobacter pylori activity at low concentrations | 1.56 | > 128 | – | – | – | – | – | – | –
2 | CCCCCCCCc1c(C)c(=O)c2ccccc2n1CC(=O)O [Structural Formula (6)] | 128 | 0.25 | > 128 | 71 | 1 | – | – | 128 | ≥ 50 | – | – | – | – | – | –
3 | CCCCCCCCc1nc2ccccc2c(OCC(=O)O)c1C [Structural Formula (2)] | 64 | 0.5 | > 128 | 2.95 | 1 | – | – | 64 | ≥ 50 | – | – | – | – | – | –
4 | Cc1c(CC(C)C)[nH]c2ccccc2c1=O [Structural Formula (4)] | 128 | 0.25 | > 128 | > 100 | 0.5 | – | – | 64 | 25 | – | – | – | – | – | –
5 | CCCCCCCCc1c(C)c(=O)c2ccccc2n1CC(=O)OC [Structural Formula (5)] | > 128 | 2 | > 128 | > 100 | 2 | – | – | > 128 | 6.25 | – | – | – | – | – | –
6 | CCCCCCCc1c(C)c(=O)c2ccccc2n1CNC(=S)SC [Structural Formula (12)] | > 128 | – | > 128 | – | – | exhibited anti-Helicobacter pylori activity at low concentrations | ≥ 50 | > 128 | – | 0.06 | 39.5 | 0.03 | – | – | –
7 | CCCCCCCc1c(C)c(=O)c2ccccc2n1CN=C(SC)SC [Structural Formula (13)] | > 128 | – | > 128 | – | – | – | ≥ 50 | > 128 | – | 2 | 1.36 | 2 | – | – | –
8 | CCCCCCCc1c(C)c(=O)c2ccccc2n1CN=C=S [Structural Formula (11)] | – | 0.016 | – | 89.5 | 0.016 | exhibited anti-Helicobacter pylori activity at low concentrations | 6.25 | – | – | – | – | – | > 128 | > 128 | > 128
